In paper PMC3160846 (PLoS ONE, 2011):

What was measured:
Format in all cases: cell-based, Human
KB-VIN10 cells [1] = assay: Western blot of Histone H3 phosphorylation and cyclin B1, KB-VIN10; settings: for Histone H3 phosphorylation and cyclin B1 expression: KB-VIN10, 48 h, BPR1K653 12, 24, 36 nM, VX680 170 and 255 nM
Protocol: Cells were lysed with ice-cold lysis buffer (10 mM Tris, 1 mM EDTA, 1 mM DTT, 60 mM KCl, 0.5% NP-40 and protease inhibitors). […] The resolved proteins were electrophoretically transferred to PVDF membranes (Amersham Life Science, Amersham, U.K.) for Western blot analysis. The membranes were blocked with 5% non-fat milk at room temperature for two hours, washed twice with TBST (1% Tween) and then incubated with either anti-phosphorylated Aurora-A/-B/-C kinase antibody (#2914S, Cell Signaling Technology, Danvers, MA), anti-Aurora-A and -B kinase antibody (#ab1287 and #ab2254, Abcam, Cambridge, MA), anti-phosphorylated Histone H3 antibody (#9701, Cell Signaling Technology, Danvers, MA), anti-Histone H3 antibody (#9715, Cell Signaling Technology, Danvers, MA), anti-Cyclin B1 antibody or anti-Actin antibody (#sc-245 and #sc-130065, Santa Cruz Biotechnology, Santa Cruz, CA) overnight at 4°C. Membranes were washed twice with TBST then subsequently incubated with a horseradish peroxidase-conjugated secondary antibody (Santa Cruz Biotechnology, Santa Cruz, CA) for 1 hour at room temperature. Immunoreactivity was detected by Enhanced Chemiluminescence (Amersham International, Buckingham, U.K.) and autoradiography. Experiments were repeated independently at least two times.

NTU0.017 cells = assay: Clonogenic assay, NTU0.017; settings: for IC50: Homo sapiens, NTU0.017, paclitaxol resistant, MDR1 ↑, read-out: IC50, anti-proliferative activity
Protocol: (§1) Human lung adenocarcinoma A549 cells and NTUB1 bladder cancer cells were maintained in RPMI supplied with 10% fetal bovine serum. […] KB-derived MRP1-expressing cell line, KB-7D, was maintained in growth medium supplemented with 7 µM VP-16.
(§2) Two hundred cells in logarithmic growth phase were seeded in a 6-well plate. The cells were exposed to various concentrations of the test drugs for a three-generation period. At the end of the incubation period, cells were fixed and stained with 50% ethanol containing 0.5% methylene blue for 30 min. The plates were washed five times with water and allowed to air-dry. Colonies were countered manually. […] Each value represents the average of at least three independent experiments run in triplicates.

MV4-11 cells = assay: Clonogenic assay, MV4-11; settings: Homo sapiens; MV4-11, leukemia, p53 mutant, MDR1 negative; read-out: IC50, anti-proliferative activity
Protocol: as §1, §2

KB-VIN10 cells [2] = assay: Apoptosis assays (Annexin-V, caspase-3/-7 imaging, TUNEL, PARP cleavage), KB-VIN10; settings: for apoptosis: phosphatidylserine translocation, caspase-3/-7 activity, DNA fragmentation: KB-VIN10, 48-72 h
Protocol: Cells were lysed with ice-cold lysis buffer (10 mM Tris, 1 mM EDTA, 1 mM DTT, 60 mM KCl, 0.5% NP-40 and protease inhibitors). […] The resolved proteins were electrophoretically transferred to PVDF membranes (Amersham Life Science, Amersham, U.K.) for Western blot analysis. […] Membranes were washed twice with TBST then subsequently incubated with a horseradish peroxidase-conjugated secondary antibody (Santa Cruz Biotechnology, Santa Cruz, CA) for 1 hour at room temperature. Immunoreactivity was detected by Enhanced Chemiluminescence (Amersham International, Buckingham, U.K.) and autoradiography. Experiments were repeated independently at least two times.
The cells were analyzed by fluorescence microscopy.
Briefly, cells were cultured in chamber-slides and incubated with test agents for various durations. […] Cells were viewed with a UV-enabled inverted-microscope at an excitation wavelength of 540 nm–560 nm and emission at 610 nm. Experiments were repeated independently at least two times.
Under in vitro conditions, cells were seeded and cultured in 8-well chamber-slides, and treated with various compounds. The treated cells were washed with PBS, fixed with 4% paraformaldehyde for 30 min on ice, and permeabilized with PBST at room temperature. […] Cells were counterstained with DAPI to detect the nucleus, and examined by fluorescence microscopy. Amount of red fluorescence labeled (DNA fragmented) cells were counted and percentage of apoptotic cells were calculated as follows: Amount of the red fluorescence labeled cells ÷ Total cells available×100. Experiments were repeated independently at least two times.

KB cells [3] = assay: Clonogenic assay, KB; settings: Homo sapiens, cervical, p53 wild-type, MDR1 negative (parental), read-out: IC50, anti-proliferative activity
Protocol: as §1, §2

KB cells [4] = assay: Apoptosis assays (Annexin-V, caspase-3/-7 imaging, TUNEL), KB; settings: 48-72 h
Protocol: Cells were cultured in chamber-slides, incubated with test agents for 48 h, and washed twice with PBS. Cells were labeled with Annexin-V-FLUOS reagent (catalog number #11858777001, Roche, Indianapolis, IN) for 30 min at room temperature. The cells were analyzed by fluorescence microscopy.
Caspase-3/-7 activity was analyzed with the MagicRed™ DEVD real-time caspase activity detection kit (catalog number #935, Immunochemistry Technologies LLC, Bloomington, MN). Briefly, cells were cultured in chamber-slides and incubated with test agents for various durations. Cells were then incubated with the Caspase-3/-7 substrate MR-(DEVD2) in culture medium for 1 hour, and then co-incubated with Hoechst 33342 for 15 min. Cells were viewed with a UV-enabled inverted-microscope at an excitation wavelength of 540 nm–560 nm and emission at 610 nm. Experiments were repeated independently at least two times.
Under in vitro conditions, cells were seeded and cultured in 8-well chamber-slides, and treated with various compounds. […] Cells were counterstained with DAPI to detect the nucleus, and examined by fluorescence microscopy. Amount of red fluorescence labeled (DNA fragmented) cells were counted and percentage of apoptotic cells were calculated as follows: Amount of the red fluorescence labeled cells ÷ Total cells available×100. […]

KB-VIN10 cells [5] = assay: Endo-replication (polyploidy), microscopy and flow cytometry, KB-VIN10; settings: for formation of polyploidy (populations >4N): KB-VIN10, 48 h, same concentrations as KB
Protocol: (§3) Cell cycle progression was monitored using flow cytometry. After drug treatment, cells were trypsinized, washed with PBS and fixed in 80% ethanol at −20°C for 1 h. The fixed cells were stained with propidium iodide (containing RNase) at room temperature in the dark for 20 min. The DNA content was determined by a fluorescence-activated cell sorting IV flow cytometer (BD Biosciences, Franklin Lakes, NJ). For each analysis, 10,000 cells were counted and the percentage of cells in each phase was calculated using the ModFit LT software (Verity Software House, Topsham, ME). Experiments were repeated independently at least three times.

KB cells [6] = assay: Endo-replication (polyploidy), microscopy and flow cytometry, KB; settings: 48 h
Protocol: as §3

HONE-1 cells = assay: Clonogenic assay, HONE-1; settings: Homo sapiens, HONE1; HONE-1, oral, p53 mutant, MDR1 negative; read-out: IC50, anti-proliferative activity
Protocol: as §1, §2

CN(C)Cc1ccccc1NC(=O)Nc1ccc(CCNc2ncnc3oc(-c4ccccc4)c(Cl)c23)cc1 [BPR1K653]
Histone H3 phosphorylation and cyclin B1 expression (KB-VIN10 cells [1]): inhibition of Histone H3 phosphorylation and down-regulation of cyclin B1 expression
IC50 (NTU0.017 cells): 0.01 ± 0.004 µM
Fold difference as compare to the IC50 in the respective parental cells (NTU0.017 cells; NTU0.017 vs NTUB1): 1 fold
IC50 (MV4-11 cells): 0.005 µM
cleavage of PARP (KB-VIN10 cells [2]; KB-VIN10, 2× IC50 of KB, 72 h, Western blot): cleavage of PARP was only shown
apoptosis: phosphatidylserine translocation, caspase-3/-7 activity, DNA fragmentation (KB-VIN10 cells [2]): induced the caspase-3/-7 activity and DNA fragmentation
IC50 (KB cells [3]): 0.012 ± 0.004 µM
apoptosis: phosphatidylserine translocation, caspase-3/-7 activity, DNA fragmentation (KB cells [4]): induced the caspase-3/-7 activity and DNA fragmentation
formation of polyploidy (populations >4N) (KB-VIN10 cells [5]): induced the formation of polyploidy
formation of polyploidy (populations >4N) (KB cells [6]): induced the formation of polyploidy
IC50 (HONE-1 cells): 0.011 µM

Cc1cc(Nc2cc(N3CCN(C)CC3)nc(Sc3ccc(NC(=O)C4CC4)cc3)n2)[nH]n1 [VX680]
Histone H3 phosphorylation and cyclin B1 expression (KB-VIN10 cells [1]): could not induce the above molecular changes
Histone H3 phosphorylation and cyclin B1 expression, with verapamil (KB-VIN10 cells [1]; KB-VIN10, + verapamil 10 µM): restore the sensitivity to VX680
IC50 (NTU0.017 cells): 6.77 ± 1.08 µM
IC50 (MV4-11 cells): 0.015 ± 0.004 µM
apoptosis: phosphatidylserine translocation, caspase-3/-7 activity, DNA fragmentation (KB-VIN10 cells [2]): not in the MDR1-expressing KB-VIN10 cells
IC50 (KB cells [3]): 0.085 ± 0.031 µM
apoptosis: phosphatidylserine translocation, caspase-3/-7 activity, DNA fragmentation (KB cells [4]): only induced the translocation of the phosphatidylserine molecule, caspase-3/-7 activity and DNA fragmentation in KB cells
formation of polyploidy (populations >4N) (KB-VIN10 cells [5]): not in KB-VIN10 cells
formation of polyploidy, co-treated with verapamil (KB-VIN10 cells [5]; KB-VIN10, + 10 µM verapamil): formation of the polyploidy population was shown
formation of polyploidy (populations >4N) (KB cells [6]): induced the formation of polyploidy in KB cells
IC50 (HONE-1 cells): 0.02 ± 0.002 µM
